# Measured values from patent publication US12233066B2, “Combinations of inhibitors of influenza virus replication” (COCRYSTAL PHARMA, INC., priority 2018, dated 2025).
# Where two headings read alike, the source gives them in different places.
# Tests used:
# [1] = test system: Influenza virus A/PR/8/34 (H1N1); assay: Cytopathic effect (CPE) assay of two-drug combinations in MDCK cells, MacSynergy II analysis; format: cell-based
# influenza B = assay: Antiviral activity of the combinations against influenza B; format: cell-based; settings: combination with Compound 1
# [2] = combination with Compound 1, A/PR/8/34 (H1N1) in MDCK cells, 0.125-8x EC50 checkerboard, MacSynergy II
SMILES,Synergy volume (95%) [1],"Antagonism volume (95%) [1, 2]",Combination effect [1],Synergistic effect in influenza antiviral CPE assays [1],Antiviral activity against influenza B (influenza B),"Synergy volume (95%) [1, 2]","Combination effect ([1]; combination with Compound 1, A/PR/8/34 (H1N1) in MDCK cells, MacSynergy II)","Synergistic effect in influenza antiviral CPE assays ([1]; combination with Compound 1, IFV A/PR/8/34 (H1N1))"
"O=C1c2c(O)c(=O)ccn2N([C@@H]2c3ccccc3SCc3c2ccc(F)c3F)[C@@H]2COCCN12 [Baloxavir, baloxavir]",285.84,−12.28,–,–,–,–,–,–
"NC(=O)c1nc(F)c[nH]c1=O [Favipiravir, favipiravir]",413.85,−3.15,Strong synergism,strong synergistic effect,exhibit antiviral activity,–,–,–
"CCC(CC)O[C@@H]1C=C(C(=O)O)C[C@H](N)[C@H]1NC(C)=O [Oseltamivir acid, oseltamivir acid]",–,−9.19,–,–,exhibit antiviral activity,269.37,Strong synergism,strong synergistic effect
